From US20170290820A1, “METHODS AND COMPOSITIONS FOR TREATING BETA-THALASSEMIA AND SICKLE CELL DISEASE” (Academia Sinica, priority 2013, published 2017) come the findings set out here.

Series [1] is described as follows: solubility in DMSO and H2O. It is filed as physicochemical. As to conditions: water; H2O; read-out: solubility H2O.
Series [2] deals with ε globin. The series can be described thus: absolute quantitative RT-PCR, proportion of ε globin mRNA. It counts as cell-based. The following applies: primary human erythroid cells, at IC50, 3 days; mock 0.0%. Here is the method:
(§1) After 3 days of drug-treatment, the total RNA was extracted by RNA Spin mini kit (Ge-Healthcare) and reverse-transcription was performed by using superscript II (Invitrogen) followed the manufactors instruction. Quantitative PCR was performed on LightCycler with using STBR green master mix followed the manufactors instruction (Roche). The absolute quantitative RT-PCR was calculated by the standard curve with supplying a known copy number of plasmids. The relative quantitative RT-PCR was normalized to the expression levels of the β-actin and compared to the mock control.
(§2) To evaluate the specificity of S51021, SS-2394, HU, and NaB in mediating globin genes activation, the amounts of individual P3-liked globin mRNAs were measured by absolute quantitative RT-PCR.
(§3) The primary human erythroid cells were treated with HU (145.9 μM), NaB (221.6 μM), S51021 (21.8 μM) or SS2394 (2.3 μM) for 3 days, and the expression levels of each globin mRNA were estimated by absolute quantitative RT-PCR analysis. The proportions of individual 3-like globin chains among the total 3-like globin mRNA are shown. Data are presented as the mean±SEM, N=3.

The subject of series [3] is γ globin. Description: absolute quantitative RT-PCR, proportion of γ globin mRNA. It counts as cell-based. The following applies: primary human erythroid cells, at IC50, 3 days; mock 7.9%. On the procedure:
as §1, §2, §3

In series [4] the test system is β globin. The series can be described thus: absolute quantitative RT-PCR, proportion of β globin mRNA. It is filed as cell-based. As to conditions: primary human erythroid cells, at IC50, 3 days; mock 88.8%. On the procedure:
as §1, §2, §3

Series [5] concerns p38. The series can be described thus: p38 phosphorylation by western blot. It is filed as cell-based, human. As to conditions: FIG. 5; western blot p-p38/p38, at IC50. Here is the method:
FIG. 5 is a graph showing the phosphorylation status of p38 in primary erythroid cells treating with HU, NaB, S51021, or SS-2394. Upper panel: For detection of the phosphorylation status of p38, twenty microgram of total cell lysate extracted from the primary human erythroid cells treated with HU (145.9 μM), NaB (221.6 μM), S51021 (21.8 μM) or SS-2394 (2.3 μM) was analyzed by Western blot analysis using antibody against p-p38 or p38. Lower panel: The signal intensity was quantified by an image-analyzing software. The intensity of p-p38 levels of mock control cells was set as 1. Data are shown as the mean±SEM, N=5.
After 3 days of compound treatment, total protein or histone of the drug-treated cells was extracted. Histone was extracted by histone extraction buffer (10 mM HEPES, 1.5 mM MgCl2, 10 mM KCl, 0.5 mM DTT, 1.5 mM PMSF and 0.2 N HCl) at 4° C. overnight then centrifuged at 13,000 rpm for 5 minutes and collected the supernatant. Thirty microgram of histone extracts were separated in 15% SDS-PAGE and blotted onto PVDF membrane. After blocking with 5% non-fat milk in TBST, the membrane was then incubated with primary antibody against total histone H4 or total acetyl histone H4 at 4° C. overnight. […]

Series [6] deals with primary human erythroid cells. The series can be described thus: AlamarBlue cell viability / proliferation assay. The following applies: Table 3; primary human erythroid cells, 3 days, proliferation reduced by 50%.
The subject of series [7] is BCL11A. Description: BCL11A mRNA level by relative quantitative RT-PCR. It counts as cell-based, human. The following applies: FIG. 4A; at IC50, 3 days, relative to mock. Here is the method:
FIGS. 4A-4D are graphs showing the expression profiles of the γ globin gene and HbF-related regulators after compounds treatment in the primary human erthroid cells. […] Data are presented as the relative expression level in mean±SEM, N=8. […] Upper panel: For detection of the induction level of γ globin, fifty microgram of total cell lysate was analyzed by western blot analysis using antibody against γ globin, or β-actin. Lower panel: The signal intensity was quantified by an image-analyzing software. The intensity of γ globin expression levels of mock control was set as 1. Data are shown as the mean±SEM, N=5. […] Lower panel: The signal was quantified by an image-analyzing software. […] Total RNA was extracted, and the expression level of γ globin gene was analyzed by relative quantitative RT-PCR. […]
After 3 days of drug-treatment, the total RNA was extracted by RNA Spin mini kit (Ge-Healthcare) and reverse-transcription was performed by using superscript II (Invitrogen) followed the manufactors instruction. Quantitative PCR was performed on LightCycler with using STBR green master mix followed the manufactors instruction (Roche). The absolute quantitative RT-PCR was calculated by the standard curve with supplying a known copy number of plasmids. The relative quantitative RT-PCR was normalized to the expression levels of the β-actin and compared to the mock control. […]

For series [8], the system named is BCL11A. The series can be described thus: BCL11A protein by western blot. It counts as cell-based, human. The following applies: FIG. 4C, at IC50, 3 days. Here is the method: FIGS. 4A-4D are graphs showing the expression profiles of the γ globin gene and HbF-related regulators after compounds treatment in the primary human erthroid cells. […] Data are presented as the relative expression level in mean±SEM, N=8. […] Upper panel: For detection of the induction level of γ globin, fifty microgram of total cell lysate was analyzed by western blot analysis using antibody against γ globin, or β-actin. Lower panel: The signal intensity was quantified by an image-analyzing software. The intensity of γ globin expression levels of mock control was set as 1. Data are shown as the mean±SEM, N=5. […] Upper panel: For detection of the expression level of BCL11A, thirty microgram of total protein was separated by SDS-PAGE electrophoresis, transferred to PVDF membrane, and immunobloted with antibody against BCL11A and β-actin. Lower panel: The signal was quantified by an image-analyzing software. The intensity of the mock control BCL11A levels were set as 1. Data are shown as the mean±SEM, N=5. FIG. 4D is a graph showing that the HU-nonresponding primary human erythroid cells were treated with HU (145.9 μM), NaB (221.6 μM), S51021 (21.8 μM) or SS-2394 (2.3 μM) for 3 days. Total RNA was extracted, and the expression level of γ globin gene was analyzed by relative quantitative RT-PCR. Data are shown as the mean±SEM, N=3. […]

Regarding `NC(=O)NO` [HU, hydroxyurea], the solubility in series [1] was greater than 100 mM. Besides, in series [2], the “ε globin proportion of total β-like globin mRNA” value was found to be 0.1 ± 0.0%. Further, in series [3], the “γ globin proportion of total β-like globin mRNA” value came to 11.2 ± 1.1%. Also, the “β globin proportion of total β-like globin mRNA” value in series [4] was found to be 84.2 ± 1.3%. Also, in series [5], the “phosphorylation level of p38” value is listed as “significantly increased”. In series [6], this compound had an IC50 of 146 µM.
Regarding `CCCC(=O)[O-].[Na+]` [NaB, sodium butyrate], in series [2], the “ε globin proportion of total β-like globin mRNA” value was determined as 0.1 ± 0.0%. Moreover, in series [3], the “γ globin proportion of total β-like globin mRNA” value turned out to be 10.8 ± 1.0%. Besides, in series [4], the “β globin proportion of total β-like globin mRNA” value came to 87.4 ± 1.0%. Moreover, in series [7], the “expression level of BCL11A mRNA” value was 0.6 folds. The BCL11A protein result in series [8] is given as “significant reduction”. Moreover, in series [5], the “phosphorylation level of p38” value is given as “significantly increased”. In series [6], this compound had an IC50 of 222 µM.
